# Patent publication US8829185B2 (Bayer HealthCare LLC, priority 2005, dated 2014)
# Columns and labels:
# [1] = system: HCT116 cells; assay: Tumor cell proliferation (Alamar Blue), HCT116; type: cell-based; conditions: Homo sapiens, HCT-116, 72 h, HCT116, 72 h
# Description: (§1) Human tumor cells (e.g., HCT116 or MDA-MB-231 cells), were seeded in a Costar 96-well plate at 3.0×10^3 cells/well and grown in 150 μl of RPMI complete media (Invitrogen Corporation, Grand Island, N.Y.) containing 10% fetal bovine serum (Hyclone, Logan, Utah) at 37° C. for 16 h in an incubator with 5% CO2. To each well, 50 μl of additional growth media containing 40 μM to 18 nM concentrations of compound with 0.4% DMSO was added. Cells were grown for another 72 h at 37° C. with 5% CO2. 20 μl of Alamar Blue (Trek Diagnostic Systems, Inc., Cleveland, Ohio) reagent was added to each well and incubated for 3 h at 37° C. Plates were read in a SpectraMax Gemini (Molecular Devices, CA) with 544 nm excitation and 590 nm emission wavelength. IC50 values were determined by linear regression analysis of log drug concentration versus percent inhibition.
# [2] = system: MDA-MB-231 cells; assay: Tumor cell proliferation (Alamar Blue), MDA-MB-231; type: cell-based; conditions: Homo sapiens, MDA-MB-231, 72 h
# Description: as §1
# [3] = system: histone 3 phosphorylation in colon carcinoma (HCT116); assay: p-Histone3 assay; type: cell-based; conditions: Homo sapiens, HCT-116, 24 h, HCT116, 24 hours treatment
# Description: Compounds were assayed for the inhibition of histone 3 phosphorylation in colon carcinoma (HCT116). Briefly, 20,000 cells/well were seeded in a 96-well black-walled, poly-d-lysine plates in RPMI+10% FBS and incubated at 37° C. in 5% CO2 overnight. The following day, the cells were treated with compounds for 24 hours at 37° C. Following compound treatment; plates were centrifuged at 1000 rpm for 2 minutes and washed twice with 100 μl of cold sterile TBS. Cells were then fixed with cold 3.7% formaldehyde in TBS (4° C. for 1 hour) and then permeabalized with 0.1% Triton-X-100 in TBS (room temperature for 30 minutes). Plates were then washed with of 0.25% BSA-TBS and blocked with BSA solution for 1 hour at room temperature while shaking. The supernatant was removed and replaced with diluted primary antibody (anti-phospho-histone 3, serine 10, Cell Signaling) at 1:250 in 0.25% BSA-TBS and incubated overnight at 4° C. The plates were washed and treated with diluted secondary antibody (anti-rabbit Eu-labeled) at 1:10000 in 0.25% BSA-TBS (room temperature for 1 hour). The antibody solution was removed from each well and washed eight times. The wash buffer was replaced with 50 μl pre-warmed enhancement solution and mixed on the orbital shaker for 10 minutes. Fluorescence was detected with a Victor V Fluorescence Detector. The data are expressed as percent inhibition: % inhibition=100−((Signal with inhibitor-background)/(Signal without inhibitor-background))×100.
# [4] = target: T1, FGFR1-GST (Homo sapiens, UniProt P11362); assay: FGFR-1 TR-FRET biochemical assay; conditions: bounds given in nM
# T1 construct: GST; made in house
# T1 sequence (P11362 22-822): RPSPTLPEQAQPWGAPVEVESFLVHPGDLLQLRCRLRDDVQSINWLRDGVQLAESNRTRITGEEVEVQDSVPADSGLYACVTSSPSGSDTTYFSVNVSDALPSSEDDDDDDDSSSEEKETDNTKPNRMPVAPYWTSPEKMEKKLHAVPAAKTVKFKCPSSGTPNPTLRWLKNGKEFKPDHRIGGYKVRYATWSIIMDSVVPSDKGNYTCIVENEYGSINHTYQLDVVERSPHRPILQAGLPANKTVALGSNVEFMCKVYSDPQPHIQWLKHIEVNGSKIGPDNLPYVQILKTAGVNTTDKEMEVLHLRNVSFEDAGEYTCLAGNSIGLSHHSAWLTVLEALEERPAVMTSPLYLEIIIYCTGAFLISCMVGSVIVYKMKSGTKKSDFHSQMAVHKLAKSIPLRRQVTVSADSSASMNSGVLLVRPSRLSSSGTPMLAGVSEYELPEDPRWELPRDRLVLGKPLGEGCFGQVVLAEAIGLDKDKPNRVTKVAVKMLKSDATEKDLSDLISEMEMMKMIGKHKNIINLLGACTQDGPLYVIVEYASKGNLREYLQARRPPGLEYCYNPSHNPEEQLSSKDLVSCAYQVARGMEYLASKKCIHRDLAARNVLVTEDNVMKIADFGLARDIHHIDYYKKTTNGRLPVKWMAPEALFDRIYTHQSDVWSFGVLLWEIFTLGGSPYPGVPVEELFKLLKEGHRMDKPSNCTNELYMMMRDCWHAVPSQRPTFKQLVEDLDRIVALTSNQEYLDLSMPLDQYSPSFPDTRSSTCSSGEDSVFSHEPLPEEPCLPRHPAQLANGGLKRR
# Procedure, shortened: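 LANCE TR-FRET with 5 nM FGFR1-GST, 0.6 uM ATP, 25 nM biotin-poly GT in HEPES pH 7.5/MgCl2, 1% DMSO; compound added before enzyme, 1 h at room temperature. 665/615 nm ratio, background without ATP; % inhibition over 10 μM–0.128 nM final for IC50.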
SMILES,IC50 ([1]; lower bound in nM) [nM],IC50 ([1]; upper bound given in μM) [nM],IC50 ([2]; lower bound in nM) [nM],IC50 ([2]; upper bound given in μM) [nM],IC50 ([3]; bounds given in μM) [µM],IC50 ([3]; lower bound in nM) [µM],IC50 [4] [nM]
"N#Cc1c(C(=O)NCC(F)(F)F)c(-c2ccc(NC(=O)Nc3cc(C(F)(F)F)ccn3)cc2)c2c(N)ncnn12 [Example 7, 4-amino-7-cyano-N-(2,2,2-trifluoroethyl)-5-{4-[({[4-(trifluoromethyl)pyridin-2-yl]amino}carbonyl)-amino]phenyl}pyrrolo[2,1-f][1,2,4]triazine-6-carboxamide]",> 500,< 4000,> 500,< 5000,< 5,> 0.5,10 to 100
"COCc1c(-c2ccc(NC(=O)Nc3cc(C(F)(F)F)ccc3F)cc2)c2c(N)ncnn2c1C(C)O (stereo not shown) [Example 25, N-{4-[4-amino-7-(1-hydroxyethyl)-6-(methoxymethyl)pyrrolo[2,1-f][1,2,4]triazin-5-yl]phenyl}-N′-[2-fluoro-5-(trifluoromethyl)phenyl]urea]",> 500,< 4000,,,,,
"Nc1ncnn2c(CN3CCOCC3)c(CO)c(-c3ccc(NC(=O)Nc4cc(C(F)(F)F)ccc4F)cc3)c12 [Example 34, N-4-[4-amino-6-(hydroxymethyl)-7-(morpholin-4-ylmethyl)-pyrrolo[2,1-f][1,2,4]triazin-5-yl]phenyl-N′-[2-fluoro-5-(trifluoromethyl)-phenyl]urea]",,,,,< 5,> 0.5,10 to 100
"N#Cc1c(-c2ccc(NC(=O)Nc3cc(C(F)(F)F)ccc3F)cc2)c2c(N)ncnn2c1CN1CCOCC1 [Example 54, N-4-[4-amino-6-cyano-7-(morpholin-4-ylmethyl)pyrrolo[2,1-f][1,2,4]triazin-5-yl]phenyl-N′-[2-fluoro-5-(trifluoromethyl)phenyl]urea]",,,,,< 5,> 0.5,< 10
"CN(C)Cc1c(C(=O)NCC(F)(F)F)c(-c2ccc(NC(=O)Nc3cccc(C(F)(F)F)n3)cc2)c2c(N)ncnn12 [Example 53, 4-amino-7-[(dimethylamino)methyl]-N-(2,2,2-trifluoroethyl)-5-{-4-[({[6-(trifluoromethyl)-pyridin-2-yl]amino}carbonyl)-amino]phenyl}pyrrolo[2,1-f][1,2,4]triazine-6-carboxamide]",,,,,< 5,> 0.5,
"COCc1c(-c2ccc(NC(=O)Nc3cc(C(F)(F)F)ccc3F)cc2)c2c(N)ncnn2c1CO [Example 23, N-{4-[4-amino-7-(hydroxymethyl)-6-(methoxymethyl)-pyrrolo[2,1-f][1,2,4]triazin-5-yl]phenyl}-N′-[2-fluoro-5-(trifluoromethyl)-phenyl]urea]",> 500,< 4000,> 500,< 5000,,,10 to 100
"Nc1ncnn2c(CN3CCOCC3)c(-c3cnco3)c(-c3ccc(NC(=O)Nc4cc(C(F)(F)F)ccn4)c(F)c3)c12 [Example 33, N-4-[4-amino-7-(morpholin-4-ylmethyl)-6-(1,3-oxazol-5-yl)pyrrolo[2,1-f][1,2,4]triazin-5-yl]-2-fluorophenyl-N′-[4-(trifluoromethyl)pyridin-2-yl]urea]",,,,,5 to 10,,< 10
"CN1CCN(Cc2c(C(=O)NCC(F)(F)F)c(-c3ccc(NC(=O)Nc4cc(C(F)(F)F)ccc4F)cc3)c3c(N)ncnn23)CC1 [Example 10, 4-amino-5-{4-[({[2-fluoro-5-(trifluoromethyl)-phenyl]amino}carbonyl)amino]phenyl}-7-[(4-methylpiperazin-1-yl)methyl]-N-(2,2,2-trifluoroethyl)pyrrolo[2,1-f][1,2,4]triazine-6-carboxamide]",,,,,< 5,> 0.5,< 10
"Nc1ncnn2c(CN3CCOCC3)c(C(=O)NCC(F)(F)F)c(-c3ccc(NC(=O)Nc4cc(C(F)(F)F)ccc4F)cc3)c12 [Example 9, 4-amino-5-{4-[({[2-fluoro-5-(trifluoromethyl)-phenyl]amino}carbonyl)amino]phenyl}-7-(morpholin-4-ylmethyl)-N-(2,2,2-trifluoroethyl)pyrrolo[2,1-f][1,2,4]triazine-6-carboxamide]",,,,,< 5,> 0.5,< 10
"COCc1c(-c2ccc(NC(=O)Nc3cc(C(F)(F)F)ccc3F)cc2)c2c(N)ncnn2c1CN1CCOCC1 [Example 12, N-{4-[4-amino-6-(methoxymethyl)-7-(morpholin-4-ylmethyl)pyrrolo[2,1-f][1,2,4]triazin-5-yl]phenyl}-N′-[2-fluoro-5-(trifluoromethyl)phenyl]urea]",> 500,< 4000,> 500,< 5000,5 to 10,,< 10
"Nc1ncnn2c(CN3CCOCC3)c(CO)c(-c3ccc(NC(=O)Nc4cc(C(F)(F)F)ccn4)cc3)c12 [Example 62, N-{4-[4-amino-6-(hydroxymethyl)-7-(morpholin-4-ylmethyl)pyrrolo[2,1-f][1,2,4]triazin-5-yl]phenyl}-N′-[4-(trifluoromethyl)-pyridin-2-yl]urea]",,,,,5 to 10,,10 to 100
"Cc1c(-c2ccc(NC(=O)Nc3cc(C(F)(F)F)ccc3F)cc2)c2c(N)ncnn2c1CN1CCOCC1 [Example 111, N-{4-[4-amino-6-methyl-7-(morpholin-4-ylmethyl)pyrrolo[2,1-f][1,2,4]triazin-5-yl]phenyl}-N′-[2-fluoro-5-(trifluoromethyl)phenyl]urea]",,,,,< 5,> 0.5,< 10
"COCc1c(-c2ccc(NC(=O)Nc3cc(C(F)(F)F)ccc3F)cc2)c2c(N)ncnn2c1CN1CCN(C)CC1 [Example 13, N-(4-{4-amino-6-(methoxymethyl)-7-[(4-methylpiperazin-1-yl)methyl]pyrrolo[2,1-f][1,2,4]triazin-5-yl}phenyl)-N′-[2-fluoro-5-(trifluoro-methyl)phenyl]urea]",> 500,< 4000,> 500,< 5000,< 5,> 0.5,10 to 100
"COCc1c(-c2ccc(NC(=O)Nc3cc(C(F)(F)F)ccc3F)cc2)c2c(N)ncnn2c1CN1CCN(S(C)(=O)=O)CC1 [Example 20, N-[4-(4-amino-6-(methoxymethyl)-7-{[4-(methylsulfonyl)piperazin-1-yl]methyl}pyrrolo[2,1-f][1,2,4]triazin-5-yl)phenyl]-N′-[2-fluoro-5-(trifluoromethyl)phenyl]urea]",,,,,5 to 10,,10 to 100
"N#CCc1c(-c2ccc(NC(=O)Nc3cc(C(F)(F)F)ccc3F)c(F)c2)c2c(N)ncnn2c1CN1CCOCC1 [Example 69, N-{4-[4-amino-6-(cyanomethyl)-7-(morpholin-4-ylmethyl)-pyrrolo[2,1-f][1,2,4]triazin-5-yl]-2-fluorophenyl}-N′-[2-fluoro-5-(trifluoromethyl)phenyl]urea]",,,,,< 5,> 0.5,< 10
"Cc1cc(-c2c(C)c(CN3CCOCC3)n3ncnc(N)c23)ccc1NC(=O)Nc1cc(C(F)(F)F)ccn1 [Example 119, N-{4-[4-amino-6-methyl-7-(morpholin-4-ylmethyl)pyrrolo[2,1-f][1,2,4]triazin-5-yl]-2-methylphenyl}-N′-[4-(trifluoromethyl)pyridin-2-yl]urea]",,,,,,,< 10
"COCCNCc1c(COC)c(-c2ccc(NC(=O)Nc3cc(C(F)(F)F)ccc3F)cc2)c2c(N)ncnn12 [Example 15, N-{4-[4-amino-7-{[(2-methoxyethyl)amino]methyl}-6-(methoxymethyl)pyrrolo[2,1-f][1,2,4]triazin-5-yl]phenyl}-N′-[2-fluoro-5-(trifluoromethyl)phenyl]urea]",,,,,,,10 to 100
